Drawing on patent US20200247812A1 (Integral Biosciences Private Limited, priority 2018, published 2020), this text covers IC50 for 26 compounds.

The target in the experiment is T1, ALK 5 (Homo sapiens, UniProt P36897).
T1 sequence (P36897 34-503): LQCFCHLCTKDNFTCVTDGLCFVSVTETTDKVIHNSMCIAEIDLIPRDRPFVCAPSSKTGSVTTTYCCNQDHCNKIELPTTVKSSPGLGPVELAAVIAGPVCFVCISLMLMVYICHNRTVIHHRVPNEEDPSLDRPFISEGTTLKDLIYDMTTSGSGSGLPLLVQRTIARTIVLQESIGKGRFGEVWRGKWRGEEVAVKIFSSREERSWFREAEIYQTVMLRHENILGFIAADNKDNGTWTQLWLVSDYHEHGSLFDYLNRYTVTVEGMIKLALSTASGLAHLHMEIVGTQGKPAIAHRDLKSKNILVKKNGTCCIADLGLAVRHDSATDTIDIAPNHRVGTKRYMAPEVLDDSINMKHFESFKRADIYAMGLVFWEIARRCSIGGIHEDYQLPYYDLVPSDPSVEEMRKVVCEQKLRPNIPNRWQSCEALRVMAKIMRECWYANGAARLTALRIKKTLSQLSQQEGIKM
Briefly: In vitro kinase assay (ALK5 IC50, LanthaScreen Terbium labeled TR-FRET). The class given is biochemical. The following applies: TGF-β kinase 6 nM, ATP 10 μM, read-out: Enzyme Activity ALK 5 IC50. The procedure: Compounds of the invention were screened in an in vitro kinase assay against ALK 5, a members of the TGF-β family of Ser/Thr kinases. Standard kinase testing conditions and techniques were employed. IC50 values of compounds against TGF-ß kinase was determined by LanthaScreen™ Terbium Labeled TR-FRET assay. Kinase assays were performed in 1X kinase buffer (# PV6135, Invitrogen, Life Technologies Grand Island, N.Y.) where total reaction volume was 10 μL in low-volume 384-well plates (#4511, Corning). Serially diluted compounds (3-fold) were incubated with TGF-β kinase (6 nM) for 10 min, following which a mixture of ATP (10 μM) (# A1852, Sigma, St-Louis, Mo.) and fluorescent-PolyGT substrate (200 nM); Cat # PV3610, Invitrogen, Life Technologies Grand Island, N.Y.) was added and incubated in dark at room temperature for 1 h. After 1 h, 10 μL stop solution containing Terbium labeled antibody (4 nM; Cat # PV3529, Invitrogen, Life Technologies Grand Island, N.Y.) and EDTA (# E5134, Sigma, St-Louis, Mo.; 20 mM) in TR-FRET dilution buffer (Cat # PV3574, Invitrogen, Life Technologies Grand Island, N.Y.) was added. Readings were taken in a Synergy Neo Plate reader (BioTek, Winooski) at single excitation of 340 nm and Dual emission at 495 nm and 520 nm respectively.
The % activity of test samples was calculated as (Sample-Min)×100/(Max −Min). [Max: DMSO control, complete reaction with enzyme with DMSO and Min: No enzyme with DMSO]. Percent inhibition (100-% activity) was fitted to the “four-parameter logistic model” in XLfit for determination of IC50 values.
(In general: TR-FRET usually uses a lanthanide donor and a delayed reading to cut background.)

For orientation: IC50 means the point on the concentration scale where inhibition reaches its midpoint. Turning to `CCc1[nH]c(=O)c(-c2cc(Cl)ccc2F)cc1Nc1ccnc2ccncc12` [Compound 1.71, 5-((1,6-naphthyridin-4-yl)amino)-3-(5-chloro-2-fluorophenyl)-6-ethylpyridin-2(1H)-one], the IC50 was not above 0.5 µM.

`CC(=O)Nc1cc(N(C)c2cc(-c3cc(Cl)ccc3F)c(=O)[nH]c2C(C)C)ccn1` [Compound 1.66, N-(4-((5-(5-chloro-2-fluorophenyl)-2-isopropyl-6-oxo-1,6-dihydropyridin-3-yl)(methyl)amino)pyridin-2-yl)acetamide]: the IC50 was in the range of 0.5 to 2 µM.

Turning to `C[C@H](O)CNC(=O)c1cnccc1Nc1cc(-c2cc(Cl)ccc2F)c(=O)n(C)c1` [Compound 1.7, (S)-4-((5-(5-chloro-2-fluorophenyl)-1-methyl-6-oxo-1,6-dihydropyridin-3-yl)amino)-N-(2-hydroxypropyl)nicotinamide], the IC50 is more than 5 µM.

Consider `CC(C)c1[nH]c(=O)c(-c2cc(Cl)ccc2F)cc1Nc1ccnc(N)c1` [Compound 1.44, 5-((2-aminopyridin-4-yl)amino)-3-(5-chloro-2-fluorophenyl)-6-isopropylpyridin-2(1H)-one], for which the IC50 was more than 5 µM.

In the case of `COc1[nH]c(=O)c(-c2cc(Cl)ccc2F)cc1Nc1ccnc2ccncc12` [Compound 1.73, 5-((1,6-naphthyridin-4-yl)amino)-3-(5-chloro-2-fluorophenyl)-6-methoxypyridin-2(1H)-one], the IC50 was in the range of 0.5 to 2 µM.

As for `CC(C)c1[nH]c(=O)c(-c2ccc(F)nc2)cc1Nc1ccnc2[nH]ccc12` [Compound 1.52, 5-((1H-pyrrolo[2,3-b]pyridin-4-yl)amino)-6′-fluoro-6-isopropyl-[3,3′-bipyridin]-2(1H)-one], the IC50 is more than 5 µM.

Take `CN(C)c1[nH]c(=O)c(-c2cc(Cl)ccc2F)cc1Nc1ccnc2ccncc12` [Compound 1.37, 5-((1,6-naphthyridin-4-yl)amino)-3-(5-chloro-2-fluorophenyl)-6-(dimethylamino)pyridin-2(1H)-one]: the IC50 was in the range of 2 to 5 µM.

Regarding `CN(C)c1[nH]c(=O)c(-c2cc(Cl)ccc2F)cc1Nc1ccncc1C(=O)NC(CO)CO` [Compound 1.11], the IC50 was more than 5 µM.

`CC(=O)Nc1cc(Nc2cc(-c3cccc(Cl)c3)c(=O)[nH]c2C(C)C)ccn1` [Compound 1.81, N-(4-((5-(3-chlorophenyl)-2-isopropyl-6-oxo-1,6-dihydropyridin-3-yl)amino)pyridin-2-yl)acetamide]: the IC50 is not above 0.5 µM.

`Cc1cc(-c2cc(Nc3ccnc4ccncc34)c(C(C)C)[nH]c2=O)ccc1F` [Compound 1.89, 5-((1,6-naphthyridin-4-yl)amino)-3-(4-fluoro-3-methylphenyl)-6-isopropylpyridin-2(1H)-one]: the IC50 fell in the range of 2 to 5 µM.

As for `CC(=O)Nc1cc(Nc2cc(-c3ccccc3CO)c(=O)[nH]c2C(C)C)ccn1` [Compound 1.53, N-(4-((5-(2-(hydroxymethyl)phenyl)-2-isopropyl-6-oxo-1,6-dihydropyridin-3-yl)amino)pyridin-2-yl)acetamide], the IC50 is more than 5 µM.

On to `CC(C)c1[nH]c(=O)c(-c2cc(Cl)ccc2F)cc1Nc1ccnc2ccncc12` [Compound 1.42, 5-((1,6-naphthyridin-4-yl)amino)-3-(5-chloro-2-fluorophenyl)-6-isopropylpyridin-2(1H)-one], for which the IC50 fell in the range of 2 to 5 µM.

For the compound `CC(C)c1[nH]c(=O)c(-c2cc(Cl)ccc2F)cc1Nc1ccncc1C(=O)N[C@@H](C)CO` [Compound 1.6], the IC50 was in the range of 0.5 to 2 µM.

In the case of `CC(C)c1[nH]c(=O)c(-c2ccc(F)c(Cl)c2)cc1Nc1ccnc2[nH]ncc12` [Compound 1.84, 5-((1H-pyrazolo[3,4-b]pyridin-4-yl)amino)-3-(3-chloro-4-fluorophenyl)-6-isopropylpyridin-2(1H)-one], the IC50 is not above 0.5 µM.

With `CC(=O)Nc1cc(Nc2cc(-c3ccc(C(F)(F)F)nc3)c(=O)[nH]c2C(C)C)ccn1` [Compound 1.56, N-(4-((6-isopropyl-2-oxo-6′-(trifluoromethyl)-1,2-dihydro-[3,3′-bipyridin]-5-yl)amino)pyridin-2-yl)acetamide], the concentration for half-maximal inhibition (IC50) was more than 5 µM.

Take `CC(C)c1[nH]c(=O)c(-c2cc(Cl)ccc2F)cc1Nc1ncnc2c1CC(=O)N2` [Compound 1.78, 4-((5-(5-chloro-2-fluorophenyl)-2-isopropyl-6-oxo-1,6-dihydropyridin-3-yl)amino)-5,7-dihydro-6H-pyrrolo[2,3-d]pyrimidin-6-one]: the IC50 is not above 0.5 µM.

On to `C[C@@H](CO)NC(=O)c1cnccc1Nc1cc(-c2cc(Cl)ccc2F)c(=O)n2c1N(C)CC2` [Compound 1.22, (S)-4-((6-(5-chloro-2-fluorophenyl)-1-methyl-5-oxo-1,2,3,5-tetrahydroimidazo[1,2-a]pyridin-8-yl)amino)-N-(1-hydroxypropan-2-yl)nicotinamide], for which the IC50 was in the range of 2 to 5 µM.

On to `CCc1[nH]c(=O)c(-c2ccc(F)c(Cl)c2)cc1Nc1ccnc2ccncc12` [Compound 1.87, 5-((1,6-naphthyridin-4-yl)amino)-3-(3-chloro-4-fluorophenyl)-6-ethylpyridin-2(1H)-one], for which the IC50 is not above 0.5 µM.

As for `CC(C)c1[nH]c(=O)c(-c2cc(Cl)ccc2F)cc1Nc1c(F)cnc2[nH]ccc12` [Compound 1.57, 3-(5-chloro-2-fluorophenyl)-5-((5-fluoro-1H-pyrrolo[2,3-b]pyridin-4-yl)amino)-6-isopropylpyridin-2(1H)-one], the 50% inhibitory concentration (IC50) was not above 0.5 µM.

For the compound `CC(C)c1[nH]c(=O)c(-c2cc(Cl)ccc2F)cc1Nc1ccnc2[nH]ccc(=O)c12` [Compound 1.59, 5-((5-(5-chloro-2-fluorophenyl)-2-isopropyl-6-oxo-1,6-dihydropyridin-3-yl)amino)-1,8-naphthyridin-4(1H)-one], the IC50 is more than 5 µM.

With `CC(C)c1[nH]c(=O)c(-c2ccsc2)cc1Nc1ccnc2ccncc12` [Compound 1.80, 5-((1,6-naphthyridin-4-yl)amino)-6-isopropyl-3-(thiophen-3-yl)pyridin-2(1H)-one], the IC50 lay within 0.5 to 2 µM.

As to `CNC(=O)c1cnccc1Nc1cc(-c2cc(Cl)ccc2F)c(=O)[nH]c1C1CC1` [Compound 1.68, 4-((5-(5-chloro-2-fluorophenyl)-2-cyclopropyl-6-oxo-1,6-dihydropyridin-3-yl)amino)-N-methylnicotinamide], the IC50 was not above 0.5 µM.

Consider `COc1[nH]c(=O)c(-c2cc(Cl)ccc2F)cc1Nc1ccnc2[nH]ccc12` [Compound 1.76, 5-((1H-pyrrolo[2,3-b]pyridin-4-yl)amino)-3-(5-chloro-2-fluorophenyl)-6-methoxypyridin-2(1H)-one], for which the IC50 was not above 0.5 µM.

Take `CN(C)c1[nH]c(=O)c(-c2cc(Cl)ccc2F)cc1Nc1ccncc1C1=NCCN1` [Compound 1.35, 3-(5-chloro-2-fluorophenyl)-5-((3-(4,5-dihydro-1H-imidazol-2-yl)pyridin-4-yl)amino)-6-(dimethylamino)pyridin-2(1H)-one]: the IC50 is 2 to 5 µM.

For the compound `CN(C)c1[nH]c(=O)c(-c2cc(Cl)ccc2F)cc1Nc1ccncc1C(F)(F)F` [Compound 1.15, 3-(5-chloro-2-fluorophenyl)-6-(dimethylamino)-5-((3-(trifluoromethyl)pyridin-4-yl)amino)pyridin-2(1H)-one], the IC50 is more than 5 µM.

Take `CC(C)c1[nH]c(=O)c(-c2cc(Cl)ccc2F)cc1Nc1ccnc(C(C)(C)C#N)c1` [Compound 1.60, 2-(4-((5-(5-chloro-2-fluorophenyl)-2-isopropyl-6-oxo-1,6-dihydropyridin-3-yl)amino)pyridin-2-yl)-2-methylpropanenitrile]: the IC50 was more than 5 µM.
